The results in this text go back to article PMC7006637, “Design, synthesis and α-glucosidase inhibition study of novel embelin derivatives” (Journal of Enzyme Inhibition and Medicinal Chemistry, 2020).

Assay type in all cases: biochemical, Saccharomyces cerevisiae
For experiment [1], the system named is α-glucosidase. The experiment can be described thus: α-glucosidase inhibition assay (PNPG substrate, OD 405 nm). The following applies: for Inhibition rate: compound at 250 μM, 0.07 U/ml enzyme, 0.5 mM PNPG, pH 6.8, 37 °C; for α-glucosidase inhibitory activity (in words): SAR discussion; for IC50: more than eight concentrations, GraphPad Prism 7.0. The procedure: The α-glucosidase inhibitory activity was determined on a Thermo Scientific Multiskan GO Microplate Reader. All compounds were dissolved in DMSO. p-Nitrophenol glucoside (PNPG) as a substrate and α-glucosidase (from Saccharomyces cerevisiae) were used for the bioassay. First, 0.7 U/ml α-glucosidase solution and 1 mmol/L PNPG solution in 0.1 M PBS (pH 6.8) were prepared. Next, 35 µl of 0.1 M PBS (pH 6.8), 10 µl of 0.7 U/ml α-glucosidase solution (final concentration: 0.07 U/ml), and 5 µl of sample solution were added to the 96-well plate. The mixture was pre-incubated for 10 min at 37 °C. Then, 50 µl of 1 mM PNPG (final concentration: 0.5 mM) was rapidly added to initiate the reaction. Then the 96-well plate was quickly transferred into the microplate reader, incubated at 37 °C for 30 min (1 min shake + 9 min incubation, repeated 3 times). After that, 50 µl of 1 M of Na2CO3 solution was added to each well to stop the reaction. The 96-well plate was quickly transferred into the microplate reader and shaken for 30 s. In the blank reference group, 5 µl DMSO replaced the sample solution, other operations were the same. The OD value was measured at 405 nm. The inhibition rate was calculated by Equation (1). (1) Inhibition rate (%) = [(A0−A1)/A0] × 100 where A0 is the OD of the control, and A1 is the OD of the sample. […] The IC50 values were calculated by GraphPad Prism 7.0 software.

Experiment [2] concerns α-glucosidase. The experiment can be described thus: Inhibition mechanism: enzyme activity versus enzyme concentration plots. Particulars: constant PNPG 1 mM; α-glucosidase 0.00-1.05 U/ml. As for the experimental part:
The inhibition mechanism of 10d, 12d, and 15d was determined by the following method: A series of diluted inhibitor solutions was prepared, at constant PNPG concentration (1 mM). The inhibition rates were measured by the above method with different concentrations of α-glucosidase (0.00, 0.35, 0.7, and 1.05 U/ml). […] Because the chemical structures of compounds 9d and 10d are very similar, compound 10d was selected as a representative in the next mechanism studies. The inhibition mechanism of the selected compounds 10d, 12d, 15d, and embelin on α-glucosidase was investigated using PNPG as the substrate. The relationship between enzyme activity and concentration in the presence of different concentrations of selected compounds was studied. […] Therefore, the inhibition of compounds 10d, 12d, 15d, and embelin against α-glucosidase is reversible.

Experiment [3] concerns α-glucosidase. The experiment can be described thus: Enzyme kinetic study, Lineweaver–Burk double-reciprocal plots. Particulars: for Inhibition type: Lineweaver–Burk plots, PNPG 0.2-1 mM, enzyme 0.7 U/ml; for Ki: from plot of slope (Km/Vm) versus inhibitor concentration, PNPG substrate, read-out: Ki value (inhibitor binding with free enzyme). As for the experimental part:
The inhibition type of the enzyme was assayed by Lineweaver–Burk plots. A series of diluted inhibitor solutions was prepared, at constant α-glucosidase concentration (0.7 U/ml). The inhibition rates were measured by the above method with different concentrations of PNPG (1, 0.5, 0.4, 0.3, 0.25, and 0.2 mM). […] The kinetic data were expressed by Lineweaver–Burk double-reciprocal plots. […] Thus, these compounds bind not only with the free α-glucosidase but also with the α-glucosidase-PNPG complex. In other words, they inhibit the function of α-glucosidase by not only directly binding to free enzyme (EI), but also by interfering with the formation of the α-glucosidase-PNPG (ES) intermediate through producing an α-glucosidase-PNPG-inhibitor (ESI) complex in a non-competitive manner. The inhibition constant for the inhibitor binding with free enzyme (Ki) was determined from a plot of the slope (Km/Vm) versus the inhibitor concentration (Figure 6(A2–D2)), and the inhibition constant for the inhibitor binding with enzyme–substrate complex (Kis) was obtained from the vertical intercept (1/Vm) versus the inhibitor concentration (Figure 6(A3–D3))[34]. The results are collected in Table 3: the Kis values of all of them are smaller than their Ki values, which mean that they have higher affinity with the enzyme-substrate complex than with the free enzyme.

In turn, `CCCC1=C(OC)C(=O)C=C(OC)C1=O` [Compound 4a] had an Inhibition rate in the experiment with α-glucosidase [1] of 9.0%.

The compound `CCCC1=C(O)C(=O)C=C(OC)C1=O` [Compound 4b] came in with an Inhibition rate in the experiment on α-glucosidase [1] of 10.4%.

In the case of `CCCC1=C(OC)C(OC)=CC(=O)C1=O` [Compound 4c], the Inhibition rate in the experiment with α-glucosidase [1] amounted to 14.9%.

Take `CCCC1=C(O)C(=O)C=C(O)C1=O` [Compound 4d]: in the experiment on α-glucosidase [1], the “α-glucosidase inhibitory activity (in words)” value was “very low inhibitory effect” and the Inhibition rate was found to be 18.1%.

In turn, `CCCCCC1=C(OC)C(=O)C=C(OC)C1=O` [Compound 5a] displayed an Inhibition rate with α-glucosidase [1] of 11.5%.

For `CCCCCC1=C(O)C(=O)C=C(OC)C1=O` [Compound 5b], in the experiment on α-glucosidase [1], the Inhibition rate worked out at 14.9%.

`CCCCCC1=C(OC)C(OC)=CC(=O)C1=O` [Compound 5c] showed an Inhibition rate in the experiment on α-glucosidase [1] of 16.4%.

Consider `CCCCCC1=C(O)C(=O)C=C(O)C1=O` [Compound 5d], for which, in the experiment with α-glucosidase [1], the “α-glucosidase inhibitory activity (in words)” value was “very low inhibitory effect” and the Inhibition rate turned out to be 19.0%.

Regarding `CCCCCCCC1=C(OC)C(=O)C=C(OC)C1=O` [Compound 6a], the Inhibition rate in the experiment on α-glucosidase [1] is listed as 1.5%.

In the experiment on α-glucosidase [1], `CCCCCCCC1=C(O)C(=O)C=C(OC)C1=O` [Compound 6b] registered an Inhibition rate of 5.4%.

In turn, `CCCCCCCC1=C(OC)C(OC)=CC(=O)C1=O` [Compound 6c] showed an Inhibition rate with α-glucosidase [1] of 16.1%.

Broadly, the IC50 is the concentration that gives 50% inhibition. Read a low IC50 as higher potency. Consider `CCCCCCCC1=C(O)C(=O)C=C(O)C1=O` [Compound 6d], for which, in the experiment with α-glucosidase [1], the Inhibition rate is on record as 80.8% and the IC50 worked out at 127 µM.

With `CCCCCCCCCC1=C(OC)C(=O)C=C(OC)C1=O` [Compound 7a], in the experiment on α-glucosidase [1], the Inhibition rate is 13.5%.

As for `CCCCCCCCCC1=C(O)C(=O)C=C(OC)C1=O` [Compound 7b], the Inhibition rate in the experiment on α-glucosidase [1] was 20.9%.

In the experiment on α-glucosidase [1], `CCCCCCCCCC1=C(OC)C(OC)=CC(=O)C1=O` [Compound 7c] gave an Inhibition rate of 33.2%.

Consider `CCCCCCCCCC1=C(O)C(=O)C=C(O)C1=O` [Compound 7d], for which, in the experiment on α-glucosidase [1], the Inhibition rate stood at 99.4% and the IC50 was determined as 5.7 µM.

Regarding `CCCCCCCCCCCC1=C(OC)C(=O)C=C(OC)C1=O` [Compound 8a], the Inhibition rate with α-glucosidase [1] is reported as 12.5%.

For `CCCCCCCCCCCC1=C(O)C(=O)C=C(OC)C1=O` [Compound 8b], in the experiment on α-glucosidase [1], the Inhibition rate was found to be 12.0%.

`CCCCCCCCCCCC1=C(OC)C(OC)=CC(=O)C1=O` [Compound 8c]: in the experiment with α-glucosidase [1], the Inhibition rate is 0.6%.

For the compound `CCCCCCCCCCCCCC1=C(O)C(=O)C=C(O)C1=O` [Compound 9d], in the experiment with α-glucosidase [1], the Inhibition rate was determined as 100% and the IC50 turned out to be 2.3 µM.

A word on the Ki: it is the dissociation constant of the complex between target and ligand, obtained from inhibition or displacement. Consider `CCCCCCCCCCCCCCCC1=C(O)C(=O)C=C(O)C1=O` [Compound 10d], for which, in the experiment with α-glucosidase [1], the Inhibition rate was 100% and half-maximal inhibition (IC50) was put at 1.8 µM. In addition, the “Inhibition mechanism (reversibility)” value in the experiment with α-glucosidase [2] was “reversible”. Further, in the experiment with α-glucosidase [3], the Inhibition type entry was “Mixed-type” and the Ki came to 1.24 µM.

`COC1=CC(=O)C(OC)=C(CCC(C)C)C1=O` [Compound 11a] had an Inhibition rate in the experiment with α-glucosidase [1] of 1.5%.

In turn, `COC1=CC(=O)C(O)=C(CCC(C)C)C1=O` [Compound 11b] came in with an Inhibition rate with α-glucosidase [1] of 2.6%.

In the experiment on α-glucosidase [1], `COC1=CC(=O)C(=O)C(CCC(C)C)=C1OC` [Compound 11c] registered an Inhibition rate of 3.3%.

On to `CC(C)CCC1=C(O)C(=O)C=C(O)C1=O` [Compound 11d], for which the Inhibition rate in the experiment with α-glucosidase [1] came out at 37.6%.

In the experiment on α-glucosidase [1], `CC(C)CCCC(C)CCC1=C(O)C(=O)C=C(O)C1=O` (centres unmarked) [Compound 12d] registered an Inhibition rate of 100% and an IC50 of 3.3 µM. In the experiment with α-glucosidase [2], the “Inhibition mechanism (reversibility)” value is recorded as “reversible”. In the experiment with α-glucosidase [3], the Inhibition type result was “Mixed-type” and the Ki turned out to be 3.71 µM.

On to `COCCCC1=C(OC)C(=O)C=C(OC)C1=O` [Compound 13a], for which, in the experiment on α-glucosidase [1], the Inhibition rate was found to be 0%.

In the experiment with α-glucosidase [1], `COCCCC1=C(O)C(=O)C=C(OC)C1=O` [Compound 13b] returned an Inhibition rate of 0%.

Take `COCCCC1=C(OC)C(OC)=CC(=O)C1=O` [Compound 13c]: in the experiment with α-glucosidase [1], the Inhibition rate worked out at 0%.

In turn, `COCCCC1=C(O)C(=O)C=C(O)C1=O` [Compound 13d] displayed an Inhibition rate with α-glucosidase [1] of 0%.

For the compound `COC1=CC(=O)C(OC)=C(CCC2CCCCC2)C1=O` [Compound 14a], the Inhibition rate in the experiment with α-glucosidase [1] stood at 70.1%.

In turn, `COC1=CC(=O)C(O)=C(CCC2CCCCC2)C1=O` [Compound 14b] returned an Inhibition rate with α-glucosidase [1] of 71.1%.

Consider `COC1=CC(=O)C(=O)C(CCC2CCCCC2)=C1OC` [Compound 14c], for which, in the experiment with α-glucosidase [1], the Inhibition rate worked out at 74.7%.

For `O=C1C=C(O)C(=O)C(CCC2CCCCC2)=C1O` [Compound 14d], in the experiment on α-glucosidase [1], the Inhibition rate came out at 85.2% and the IC50 was determined as 45.3 µM.

In the experiment on α-glucosidase [1], `O=C1C=C(O)C(=O)C(CCCCCCCc2ccccc2)=C1O` [Compound 15d] had an Inhibition rate of 100% and an IC50 of 3.6 µM. For the same compound, the “Inhibition mechanism (reversibility)” value in the experiment on α-glucosidase [2] is recorded as “reversible”. Also, in the experiment on α-glucosidase [3], the Inhibition type entry is “Mixed-type” and the Ki is 2.4 µM.

For `COC1=CC(=O)C(OC)=C(Cc2ccc3ccccc3c2)C1=O` [Compound 16a], the Inhibition rate with α-glucosidase [1] came out at 6.0%.

As to `COC1=CC(=O)C(O)=C(Cc2ccc3ccccc3c2)C1=O` [Compound 16b], the Inhibition rate with α-glucosidase [1] is reported as 4.3%.

In the experiment on α-glucosidase [1], `COC1=CC(=O)C(=O)C(Cc2ccc3ccccc3c2)=C1OC` [Compound 16c] displayed an Inhibition rate of 37.2%.

Turning to `O=C1C=C(O)C(=O)C(Cc2ccc3ccccc3c2)=C1O` [Compound 16d], in the experiment on α-glucosidase [1], the Inhibition rate was 81.4% and the midpoint of inhibition, the IC50, lay at 74.8 µM.

On to `COC1=CC(=O)C(OC)=C(Cc2ccc(-c3ccccc3)cc2)C1=O` [Compound 17a], for which the Inhibition rate in the experiment on α-glucosidase [1] was found to be 5.1%.

`COC1=CC(=O)C(O)=C(Cc2ccc(-c3ccccc3)cc2)C1=O` [Compound 17b] had an Inhibition rate in the experiment with α-glucosidase [1] of 14.3%.

Consider `COC1=CC(=O)C(=O)C(Cc2ccc(-c3ccccc3)cc2)=C1OC` [Compound 17c], for which, in the experiment on α-glucosidase [1], the Inhibition rate is 59.7%.

For the compound `O=C1C=C(O)C(=O)C(Cc2ccc(-c3ccccc3)cc2)=C1O` [Compound 17d], in the experiment with α-glucosidase [1], the Inhibition rate is on record as 99.5% and the IC50 was found to be 11.2 µM.

Take `CCCCCCCCCCCC1=C(O)C(=O)C=C(O)C1=O` [Embelin, 2,5-dihydroxy-3-undecyl-1,4-benzoquinone]: in the experiment with α-glucosidase [1], the Inhibition rate is 100% and the IC50 stood at 4.2 µM. Besides, the “Inhibition mechanism (reversibility)” value in the experiment with α-glucosidase [2] was “reversible”. For the same compound, in the experiment with α-glucosidase [3], the Inhibition type entry is listed as “Mixed-type” and the Ki is 3.72 µM.
